Source: paper PMC12564302, “Discovery of N-Hydroxypyridinedione-Based Inhibitors of HBV RNase H: Design, Synthesis, and Extended SAR Studies” (International Journal of Molecular Sciences, 2025)
Read-outs that look alike come from different tables or passages of the source.

Assays:
[1] = system: HBV replication in HepDES19 cells; settings: cited from earlier work
HepDES19 cells = settings: cited from earlier work
MTS cytotoxicity assay = format: cell-based; settings: human, HepDES19 cells, pH 7.4
Experimental: (§1) HepDES19 cells are a HepG2 cell-line derivative that has been stably transfected with an HBV genotype D genome containing a tetracycline repressible promoter. HepDES19 cells were maintained on collagen-coated plates in Dulbecco’s modified Eagle’s medium (DMEM/F12) (Cytiva Life Sciences, Marlborough, MA, USA) supplemented with 10% fetal bovine serum (FBS), streptomycin (100 µg/mL), and penicillin (100 IU/mL), and incubated at 37 °C with 5% CO2 and saturating humidity. Cells were cultured with 1 µg/mL tetracycline to inhibit the expression of the stably integrated HBV genome, and HBV replication was activated upon removal of tetracycline from the culture medium.
Cell viability was assessed using the CellTiter 96^TM Aqueous Non-Radioactive Cell Proliferation assay (MTS) (Promega, Madison, WI, USA) as described previously. HepDES19 cells were seeded in 96 well plates at 1 × 10^4 cells/well for 48 h. Cells were then incubated with serial diluted compound, with a final concentration of 1% DMSO, for 72 h. Following compound incubation, background absorbance values were subtracted, and the data were converted into percent cell viability. The cytotoxic concentration 50% (CC50) values were calculated using GraphPad Prism’s four-parameter log (inhibitor) versus response algorithm, with the bottom value set to zero. Three or more replicate assays were performed on different days.

[2] = Parallel artificial membrane permeability assay; format: in vitro ADME; settings: PAMPA, pH 7.4, PAMPA
Experimental: The evaluation of apparent passive permeability (Papp) at pH 7.4 was performed using a donor/acceptor cassette (Innovative Laboratory Products, Phoenix, AZ, USA and Sigma Aldrich, Burlington, MA, USA), which simulates the apical and basolateral sides of the small intestine epithelium, as previously described. An artificial membrane made of 1% w/v lecithin/dodecane was applied to the poly (vinylidene fluoride) (PVDF) membrane filter and allowed to dry. Following drying, compounds (200 µM) were diluted in buffer at pH 7.4 and added to the donor side of the cassette. The same pH buffer was added on the acceptor side of the cassette, after which it was assembled and incubated at room temperature with shaking at 250 rpm for 2 h, before reading the absorbance of 100 µL from the acceptor well on a plate reader between 230 and 700 nm. The Papp (cm/s) values for compounds were determined by normalizing to the compound absorbance at equilibrium using the peak absorbance point for each compound, buffer volume, incubation time, and membrane porosity. Two or more replicate assays were conducted on different days.

Solubility limit assay = format: physicochemical; settings: DMEM-F12 without phenol red with 10% FBS, pH 7.4, plasma or biological fluid, kinetic from dmso stock
Experimental: Solubility limits of compounds were tested as previously reported in DMEM-F12 without phenol red (Gibco, Grand Island, NY, USA) but with the media supplemented with 10% FBS (pH 7.4) to mimic cell culture experiments. In a 384-well optically clear plate, compounds were serially diluted in pH 7.4 buffer (upper limit 200 µM, DMSO 1%) then read at 620 nm. Solubility limits were determined by plotting compound concentration (µM) against optical density (OD) and identifying an inflexion point. The inflexion point is defined by a substantial increase in OD brought on by increasing turbidity, and the compound concentration at this point is known as the solubility limit. Each compound had at least two replicate assays performed on different days.

[3] = system: HBV RNase H carrying the P790L mutation; experiment: Recombinant RNase H biochemical assay (FAM/IowaBlack RNA:DNA heteroduplex); settings: qualitative assay
Experimental: HBV RNase H carrying the P790L mutation that is needed to stabilize the recombinant enzyme was purified from E. coli, and RNase H assays in which an RNA:DNA heteroduplex was incubated with the recombinant enzyme were performed. The RNA strand is FAM-labelled, and the DNA strand carries an IowaBlack quencher. Cleavage of the RNA strand releases the FAM moiety from quenching, causing an increase in fluorescence. Performance limitations with the enzyme limit this assay to just qualitative interpretation.

[4] = system: HBV replication in HepDES19 cells; experiment: qPCR HBV replication inhibition assay; format: cell-based, HBV genotype D; settings: 72 h, (+) polarity DNA strand, pH 7.4, read-out: EC50
Experimental: as §1
HBV replication inhibition in HepDES19 cells was assessed using a strand-preferential quantitative PCR assay as previously described. HepDES19 cells were seeded in 96 well plates at 4 × 10^4 cells/well for 48 h followed by the addition of serial diluted compound with a final concentration of 1% DMSO for 72 h, after which cells were lysed, and qPCR was performed as described in Li et al.. Effective concentration 50% (EC50) values were calculated from data for the (+) polarity DNA strand data using GraphPad Prism version 10’s four-parameter log (inhibitor) versus response algorithm, with the bottom value set to zero. Three or more replicate assays were performed on different days.

[5] = pH 7.4, previously published compounds
[6] = pH 7.4, 200 µM, 2 h, read-out: Papp
[7] = pH 7.4, read-out: Papp Interpretation
[8] = pH 7.4, DMEM-F12 with 10% FBS, 1% DMSO, upper limit 200 µM, read-out: Solubility Limit
[9] = pH 7.4, read-out: Solubility Limit Interpretation
[10] = Hepatitis B virus, HepDES19, 72 h, pH 7.4, HepDES19 cells
[11] = pH 7.4, previously published compound, Table 1
[12] = pH 7.4, previously published compound
[13] = Figure 1, earlier HBV RNase H inhibitors

| SMILES | EC50 [1, 5] | CC50 (HepDES19 cells; [5]) | CC50 at 72 h (MTS cytotoxicity assay) | Papp at 2 h, 200 µM [2, 6] | Papp at 2 h, 200 µM [2, 7] | solubility (Solubility limit assay; [8]) | solubility (Solubility limit assay; [9]) | EC50 [4, 10] | further results |
| --- | --- | --- | --- | --- | --- | --- | --- | --- | --- |
| C/C(=N\OCc1cccc(Cl)c1)c1c(C)cc(=O)n(O)c1O [Compound 50] | 1.35 ± 1.03 µM | 56.9 ± 31.1 µM | – | – | – | – | – | – | – |
| C/C(=N\OCc1ccc(Br)cc1)c1c(C)cc(=O)n(O)c1O [Compound 48] | 1.13 ± 0.19 µM | 76.7 ± 30.3 µM | – | – | – | – | – | – | – |
| C/C(=N\OCc1ccc(Cl)cc1)c1c(C)cc(=O)n(O)c1O [Compound 51] | 0.36 ± 0.24 µM | 46.6 ± 13.6 µM | – | – | – | – | – | – | – |
| CC(=Nc1ccc(F)c(F)c1)c1c(C)cc(=O)n(O)c1O [Compound 22, 5-(1-((3,4-difluorophenyl)imino)ethyl)-1,6-dihydroxy-4-methylpyridin-2(1H)-one] | – | – | 100 µM | 29.9 nm/s | > 10 nm/s | > 200 µM | > 100 µM | 0.9 µM | suppression of RNase H activity ([3]; at 100 µM): ~ 50%; suppression of RNase H activity (in words) [3]: dose-dependent suppression of RNase H activity; EC50 ([4]; HepDES19 cells): 0.89 ± 0.4 µM |
| C/C(=N\c1ccccc1N)c1c(C)cc(=O)n(O)c1O [Compound 54] | – | – | – | – | – | – | – | – | EC50 [1, 11]: 0.69 ± 0.2 µM; CC50 (HepDES19 cells; [11]): 15 ± 7 µM |
| C/C(=N\OCc1ccccc1Cl)c1c(C)cc(=O)n(O)c1O [Compound 49] | 0.24 ± 0.09 µM | – | – | – | – | – | – | – | – |
| C/C(=N\OCc1cccc(Br)c1)c1c(C)cc(=O)n(O)c1O [Compound 47] | 0.52 ± 0.33 µM | 78.5 ± 32.4 µM | – | – | – | – | – | – | – |
| C/C(=N\OCc1ccccc1Br)c1c(C)cc(=O)n(O)c1O [Compound 46] | 2 ± 1.6 µM | 80.8 ± 27.5 µM | – | – | – | – | – | – | – |
| C/C(=N\OCc1ccccc1F)c1c(C)cc(=O)n(O)c1O [Compound 52] | – | – | – | – | – | – | – | – | EC50 [1, 12]: 0.32 ± 0.2 µM; CC50 (HepDES19 cells; [12]): 90 ± 6 µM |
| C/C(=N\OCc1cccc(F)c1)c1c(C)cc(=O)n(O)c1O [Compound 53] | 0.06 ± 0.01 µM | 73.9 ± 28.6 µM | – | – | – | – | – | – | – |
| CC(=Nc1ccc(Cl)c(Cl)c1)c1c(C)cc(=O)n(O)c1O [Compound 24, 5-(1-((3,4-dichlorophenyl)imino)ethyl)-1,6-dihydroxy-4-methylpyridin-2(1H)-one] | – | – | 69 µM | 22.4 nm/s | > 10 nm/s | > 200 µM | > 100 µM | 2.17 ± 0.8 µM | – |
| CC(=NCc1ccc(F)c(F)c1)c1c(C)cc(=O)n(O)c1O [Compound 41, 5-(1-((3,4-difluorobenzyl)imino)ethyl)-1,6-dihydroxy-4-methylpyridin-2(1H)-one] | – | – | 23.9 ± 11.7 µM | 25.4 nm/s | > 10 nm/s | > 200 µM | > 100 µM | 10.7 ± 0.5 µM | – |
| CC(=NCc1cccc(Cl)c1)c1c(C)cc(=O)n(O)c1O [Compound 37, 5-(1-((3-chlorobenzyl)imino)ethyl)-1,6-dihydroxy-4-methylpyridin-2(1H)-one] | – | – | 34 ± 23 µM | 54.1 nm/s | > 10 nm/s | > 200 µM | > 100 µM | 4.73 ± 4.4 µM | – |
| COc1ccc(CON=C(C)c2c(C)cc(=O)n(O)c2O)cc1 [A24] | – | – | – | – | – | – | – | – | EC50 [1, 13]: 0.29 µM; CC50 (HepDES19 cells; [13]): 102 µM |
| CC(=NCc1ccc(Br)cc1)c1c(C)cc(=O)n(O)c1O [Compound 35, 5-(1-((4-bromobenzyl)imino)ethyl)-1,6-dihydroxy-4-methylpyridin-2(1H)-one] | – | – | 44.4 ± 34.4 µM | 31.5 nm/s | > 10 nm/s | > 200 µM | > 100 µM | 15 ± 10.7 µM | – |
| CC(=NCc1ccc(Cl)cc1)c1c(C)cc(=O)n(O)c1O [Compound 38, 5-(1-((4-chlorobenzyl)imino)ethyl)-1,6-dihydroxy-4-methylpyridin-2(1H)-one] | – | – | 22.9 ± 7 µM | 30.7 nm/s | > 10 nm/s | > 200 µM | > 100 µM | 18.9 ± 8.4 µM | – |
